Test results from the NIST ThermoML archive (doi:10.1016/j.jct.2016.03.026).

Assay: xn = mol fraction of the nth substance listed
Details: 283.15 K, Fluid (supercritical or subcritical phases), Vibrating tube method, x1 = 0.97

O=C=O [carbon dioxide] + CO
Details | mass density [kg/m3]
10450 kPa | 927.45
10475 kPa | 927.61
10500 kPa | 927.78
10525 kPa | 927.92
10550 kPa | 928.1
10575 kPa | 928.27
10600 kPa | 928.46
10625 kPa | 928.66
10650 kPa | 928.76
10675 kPa | 928.84
10700 kPa | 929
10725 kPa | 929.16
10750 kPa | 929.25
10775 kPa | 929.45
10800 kPa | 929.62
10825 kPa | 929.74
10850 kPa | 929.88
10875 kPa | 930.06
10900 kPa | 930.27
10925 kPa | 930.41
10950 kPa | 930.57
10975 kPa | 930.73
11000 kPa | 930.89
11025 kPa | 931.03
11050 kPa | 931.19
11075 kPa | 931.33
11100 kPa | 931.58
11125 kPa | 931.69
11150 kPa | 931.86
11175 kPa | 932.02
11200 kPa | 932.18
11225 kPa | 932.34
11250 kPa | 932.51
11275 kPa | 932.67
11300 kPa | 932.9
11325 kPa | 933.08
11350 kPa | 933.16
11375 kPa | 933.37
11400 kPa | 933.49
11425 kPa | 933.66
11450 kPa | 933.88
11475 kPa | 933.98
11500 kPa | 934.17
11525 kPa | 934.39
11550 kPa | 934.47
11575 kPa | 934.64
11600 kPa | 934.8
11625 kPa | 934.96
11650 kPa | 935.12
11675 kPa | 935.29
11700 kPa | 935.45
11725 kPa | 935.61
11750 kPa | 935.78
11775 kPa | 935.94
11800 kPa | 936.1
11825 kPa | 936.26
11850 kPa | 936.43
11875 kPa | 936.59
11900 kPa | 936.74
11925 kPa | 936.92
11950 kPa | 937.07
11975 kPa | 937.23
12000 kPa | 937.33
12025 kPa | 937.53
12050 kPa | 937.68
12075 kPa | 937.82
12100 kPa | 937.98
12125 kPa | 938.14
12150 kPa | 938.31
12175 kPa | 938.47
12200 kPa | 938.63
12225 kPa | 938.8
12250 kPa | 938.96
12275 kPa | 939.1
12300 kPa | 939.21
12325 kPa | 939.37
12350 kPa | 939.53
12375 kPa | 939.7
12400 kPa | 939.86
12425 kPa | 940.02
12450 kPa | 940.19
12475 kPa | 940.27
12500 kPa | 940.45
12525 kPa | 940.59
12550 kPa | 940.76
12575 kPa | 940.92
12600 kPa | 941.08
12625 kPa | 941.25
12650 kPa | 941.41
12675 kPa | 941.57
12700 kPa | 941.74
12725 kPa | 941.87
12750 kPa | 942.06
12775 kPa | 942.16
12800 kPa | 942.34
12825 kPa | 942.47
12850 kPa | 942.63
12875 kPa | 942.8
12900 kPa | 942.96
12925 kPa | 943.13
12950 kPa | 943.22
12975 kPa | 943.37
13000 kPa | 943.53
13025 kPa | 943.7
13050 kPa | 943.86
13075 kPa | 944.02
13100 kPa | 944.17
13125 kPa | 944.27
13150 kPa | 944.43
13175 kPa | 944.59
13200 kPa | 944.76
13225 kPa | 944.92
13250 kPa | 945.05
13275 kPa | 945.17
13300 kPa | 945.33
13325 kPa | 945.49
13350 kPa | 945.66
13375 kPa | 945.77
13400 kPa | 945.9
13425 kPa | 946.06
13450 kPa | 946.23
13475 kPa | 946.39
13500 kPa | 946.47
13525 kPa | 946.63
13550 kPa | 946.8
13575 kPa | 946.94
13600 kPa | 947.04
13625 kPa | 947.2
13650 kPa | 947.37
13675 kPa | 947.53
13700 kPa | 947.69
13725 kPa | 947.78
13750 kPa | 947.94
13775 kPa | 948.1
13800 kPa | 948.24
13825 kPa | 948.4
13850 kPa | 948.51
13875 kPa | 948.67
13900 kPa | 948.84
13925 kPa | 948.95
13950 kPa | 949.1
13975 kPa | 949.24
14000 kPa | 949.41
14025 kPa | 949.51
14050 kPa | 949.65
14075 kPa | 949.82
14100 kPa | 949.98
14125 kPa | 950.11
14150 kPa | 950.22
14175 kPa | 950.39
14200 kPa | 950.55
14225 kPa | 950.7
14250 kPa | 950.8
14275 kPa | 950.96
14300 kPa | 951.12
14325 kPa | 951.2
14350 kPa | 951.37
14375 kPa | 951.51
14400 kPa | 951.61
14425 kPa | 951.77
14450 kPa | 951.93
14475 kPa | 952.09
14500 kPa | 952.19
14525 kPa | 952.37
14550 kPa | 952.51
14575 kPa | 952.59
14600 kPa | 952.75
14625 kPa | 952.93
14650 kPa | 953.08
14675 kPa | 953.17
14700 kPa | 953.32
14725 kPa | 953.48
14750 kPa | 953.62
14775 kPa | 953.73
14800 kPa | 953.88
14825 kPa | 954.02
14850 kPa | 954.14
14875 kPa | 954.28
14900 kPa | 954.41
14925 kPa | 954.57
14950 kPa | 954.68
14975 kPa | 954.79
15000 kPa | 954.95
15025 kPa | 955.09
15050 kPa | 955.2
15075 kPa | 955.36
15100 kPa | 955.44
15125 kPa | 955.6
15150 kPa | 955.77
15175 kPa | 955.88
15200 kPa | 956.01
15225 kPa | 956.18
15250 kPa | 956.27
15275 kPa | 956.42
15300 kPa | 956.56
15325 kPa | 956.66
15350 kPa | 956.78
15375 kPa | 956.93
15400 kPa | 957.07
15425 kPa | 957.17
15450 kPa | 957.32
15475 kPa | 957.47
15500 kPa | 957.56
15525 kPa | 957.72
15550 kPa | 957.84
15575 kPa | 957.97
15600 kPa | 958.13
15625 kPa | 958.22
15650 kPa | 958.37
15675 kPa | 958.52
15700 kPa | 958.62
15725 kPa | 958.78
15750 kPa | 958.89
15775 kPa | 959.05
15800 kPa | 959.19
15825 kPa | 959.3
15850 kPa | 959.43
15875 kPa | 959.55
15900 kPa | 959.71
15925 kPa | 959.84
15950 kPa | 959.94
15975 kPa | 960.09
16000 kPa | 960.25
16025 kPa | 960.33
16050 kPa | 960.49
16075 kPa | 960.6
16100 kPa | 960.74
16125 kPa | 960.89
16150 kPa | 960.98
16175 kPa | 961.15
16200 kPa | 961.23
16225 kPa | 961.39
16250 kPa | 961.53
16275 kPa | 961.63
16300 kPa | 961.74
16325 kPa | 961.89
16350 kPa | 962.02
16375 kPa | 962.15
16400 kPa | 962.28
16425 kPa | 962.42
16450 kPa | 962.53
16475 kPa | 962.61
16500 kPa | 962.78
16525 kPa | 962.86
